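Dose response: 5 concentrations. Exposure: 48 h. Format: 96-well plates. Endpoint: linear interpolation; highest concentration if not reached. GI50 marks 50% less growth. TGI: total growth inhibition.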
What was measured:
Experiment in all cases: DTP human tumour cell line panel, 48 h
[1] = tested on: HOP-62 NSCLC
[2] = tested on: KM12 colon
[3] = tested on: IGROV1 ovarian
[4] = tested on: RXF 393 renal
[5] = tested on: CCRF-CEM leukemia
[6] = tested on: UACC-62 melanoma
[7] = tested on: SK-MEL-5 melanoma
[8] = tested on: SNB-19 CNS
[9] = tested on: U251 CNS
[10] = tested on: HOP-92 NSCLC

Which results are given for `c1ccc2c(c1)c1ccccc1n2Cn1c2ccccc2c2ccccc21`?
TGI [1]: > 100 µM; TGI [2]: > 100 µM; TGI [3]: > 100 µM; TGI [4]: > 100 µM; TGI [5]: > 100 µM; TGI [6]: > 100 µM; TGI [7]: > 100 µM; TGI [8]: > 100 µM; TGI [9]: > 100 µM; TGI [10]: > 100 µM

Which results are given for `CCOC(=O)/C=C/c1c(C)[nH]c(=O)[nH]c1=O`?
TGI [1]: > 250 µM; TGI [2]: > 250 µM; TGI [3]: > 250 µM; TGI [4]: > 250 µM; TGI [5]: > 250 µM; TGI [6]: > 250 µM; TGI [7]: > 250 µM; TGI [8]: > 250 µM; TGI [9]: > 250 µM; TGI [10]: > 25 µM

`O=C(NN1C(=O)C(Cl)C1c1cccc([N+](=O)[O-])c1)c1ccccc1O` (stereo unspecified) was tested. Which TGI [1] did it give?
The TGI was over 100 µM.

What about the TGI [2] of the same compound?
Its TGI is over 100 µM.

What about the TGI [3] of the same compound?
The TGI was over 100 µM.

What about the TGI [4] of the same compound?
Its TGI is over 100 µM.

What about the TGI [5] of the same compound?
The TGI was over 100 µM.

And the TGI [6]?
Its TGI is over 100 µM.

And the TGI [7]?
The TGI was over 100 µM.

What about the TGI [8] of the same compound?
The TGI was over 100 µM.

And the TGI [9]?
The TGI was over 100 µM.

And the TGI [10]?
The TGI was over 100 µM.

For `CCOC(=O)NC(Nc1cc(Cl)ccc1OC)(C(F)(F)F)C(F)(F)F`, which TGI [1] is on record?
The TGI was over 100 µM.

What about the TGI [2] of the same compound?
The TGI was over 100 µM.

And the TGI [3]?
Its TGI is over 100 µM.

And the TGI [4]?
Its TGI is over 100 µM.

And the TGI [5]?
The TGI was over 100 µM.

What about the TGI [6] of the same compound?
Its TGI is over 100 µM.

What about the TGI [7] of the same compound?
The TGI was over 100 µM.

And the TGI [8]?
Its TGI is over 100 µM.

What about the TGI [9] of the same compound?
The TGI was over 100 µM.

What about the TGI [10] of the same compound?
The TGI was over 100 µM.

For `C/C(=N\NC(=S)N1CCC(N2CCCCC2)CC1)c1ccccn1`, which TGI [1] is on record?
Its TGI is over 19.8 µM.

What about the TGI [2] of the same compound?
Its TGI is 9.53 µM.

What about the TGI [3] of the same compound?
Its TGI is 12.3 µM.

And the TGI [4]?
The TGI was 2.29 µM.

What about the TGI [5] of the same compound?
Its TGI is 34.3 µM.

What about the TGI [6] of the same compound?
Its TGI is 10.7 µM.

And the TGI [7]?
The TGI was 8.22 µM.

What about the TGI [8] of the same compound?
The TGI was 11.3 µM.

What about the TGI [9] of the same compound?
Its TGI is 9.86 µM.

And the TGI [10]?
The TGI was 9.79 µM.

`O=C1CCC[C@H]2O[C@@H](COC(=O)c3ccccc3)C[C@H]2O1` was tested. Which TGI [1] did it give?
Its TGI is over 100 µM.

And the TGI [2]?
The TGI was over 100 µM.

And the TGI [3]?
Its TGI is over 100 µM.

And the TGI [5]?
The TGI was over 100 µM.

And the TGI [6]?
Its TGI is over 100 µM.

And the TGI [7]?
Its TGI is over 100 µM.

And the TGI [8]?
Its TGI is over 100 µM.

What about the TGI [9] of the same compound?
Its TGI is over 100 µM.

What about the TGI [10] of the same compound?
Its TGI is over 100 µM.

Which results are given for `O=C1C(CO)=C[C@H](O)[C@H]2O[C@@H]12`?
TGI [1]: > 612 µM; TGI [2]: 219 µM; TGI [3]: 473 µM; TGI [4]: 402 µM; TGI [5]: 418 µM; TGI [6]: 215 µM; TGI [7]: 389 µM; TGI [8]: > 625 µM; TGI [9]: 381 µM; TGI [10]: 525 µM

`Cc1ccc(Cl)cc1N=NC(=O)NNc1cc(Cl)ccc1C` was tested. Which TGI [1] did it give?
Its TGI is 23.6 µM.

And the TGI [2]?
The TGI was over 100 µM.

What about the TGI [3] of the same compound?
Its TGI is 38.3 µM.

And the TGI [4]?
Its TGI is 72.7 µM.

And the TGI [5]?
Its TGI is 54.4 µM.

And the TGI [6]?
The TGI was 24.2 µM.

And the TGI [7]?
The TGI was 29.1 µM.

What about the TGI [8] of the same compound?
Its TGI is 43.2 µM.

What about the TGI [9] of the same compound?
The TGI was 59.6 µM.

What about the TGI [10] of the same compound?
The TGI was 35.8 µM.

Which GI50 [1] does the source give for `CCOc1cc(/C=C/C(=O)C(C(=O)/C=C/c2ccc(OC(=O)CNc3nc4ccccc4[nH]3)c(OCC)c2)C(=O)CNc2nc3ccccc3[nH]2)ccc1OC(=O)CNc1nc2ccccc2[nH]1` here?
The GI50 was 4.23 µM.

What about the TGI [1] of the same compound?
The TGI was over 100 µM.

And the GI50 [2]?
The GI50 was 1.62 µM.

And the TGI [2]?
The TGI was 3.26 µM.

What about the GI50 [3] of the same compound?
The GI50 was 2.93 µM.

What about the TGI [3] of the same compound?
Its TGI is over 100 µM.

And the GI50 [4]?
The GI50 was 4.08 µM.

And the TGI [4]?
The TGI was over 100 µM.

And the GI50 [5]?
Its GI50 is 1.14 µM.

And the TGI [5]?
Its TGI is 3.16 µM.

What about the GI50 [6] of the same compound?
Its GI50 is 1.9 µM.

What about the TGI [6] of the same compound?
The TGI was 3.98 µM.

What about the GI50 [7] of the same compound?
Its GI50 is 1.6 µM.

What about the TGI [7] of the same compound?
Its TGI is 3.02 µM.

And the GI50 [8]?
Its GI50 is 2.96 µM.

And the TGI [8]?
The TGI was 11.7 µM.

And the GI50 [9]?
The GI50 was 1.94 µM.

And the TGI [9]?
The TGI was 4.34 µM.

What about the GI50 [10] of the same compound?
Its GI50 is 1.4 µM.

And the TGI [10]?
Its TGI is 4.26 µM.

With `O=C(N/N=C\c1cccc2ccccc12)Nc1ccccc1` as the compound, how does the TGI [1] read?
The TGI was over 100 µM.

And the TGI [2]?
The TGI was over 100 µM.

What about the TGI [3] of the same compound?
The TGI was over 100 µM.

And the TGI [4]?
Its TGI is over 100 µM.

And the TGI [5]?
Its TGI is over 100 µM.

What about the TGI [6] of the same compound?
Its TGI is over 100 µM.

And the TGI [7]?
The TGI was over 100 µM.

And the TGI [8]?
Its TGI is over 100 µM.

What about the TGI [9] of the same compound?
Its TGI is over 100 µM.

And the TGI [10]?
Its TGI is over 100 µM.

`c1cc2c3c(c1)c1cc4c(cc1c[n+]3CC2)OCO4` was tested. Which TGI [1] did it give?
Its TGI is 15.4 µM.

What about the TGI [2] of the same compound?
Its TGI is 27.8 µM.

And the TGI [3]?
The TGI was 63.5 µM.

What about the TGI [4] of the same compound?
Its TGI is 32.5 µM.

What about the TGI [5] of the same compound?
Its TGI is 35.8 µM.

And the TGI [6]?
The TGI was 16 µM.

And the TGI [7]?
The TGI was 9.08 µM.

And the TGI [8]?
The TGI was 13.5 µM.

And the TGI [9]?
The TGI was 18.8 µM.

What about the TGI [10] of the same compound?
The TGI was 106 µM.

How did the TGI [1] turn out when `COc1cc(-c2ccc(N=Nc3ccc4c(S(=O)(=O)O)cc(S(=O)(=O)O)c(N)c4c3O)c(OC)c2)ccc1N=Nc1ccc2c(S(=O)(=O)O)cc(S(=O)(=O)O)c(N)c2c1O` was run?
Its TGI is over 100 µM.

And the TGI [2]?
Its TGI is over 100 µM.

What about the TGI [3] of the same compound?
Its TGI is over 100 µM.

And the TGI [4]?
Its TGI is over 100 µM.

What about the TGI [5] of the same compound?
The TGI was over 100 µM.

And the TGI [6]?
The TGI was over 100 µM.

What about the TGI [7] of the same compound?
The TGI was over 100 µM.

What about the TGI [8] of the same compound?
Its TGI is over 100 µM.

What about the TGI [9] of the same compound?
Its TGI is over 100 µM.

And the TGI [10]?
Its TGI is over 100 µM.

Which GI50 [2] does the source give for `COc1cccc2c1C(=O)c1c(O)c3c(c(O)c1C2=O)C[C@@](O)(C(=O)COC(=O)c1ccccc1)C[C@@H]3OC1CC(N)C(O)C(C)O1` (stereo partly specified) here?
Its GI50 is 0.215 µM.

And the TGI [2]?
Its TGI is 1.23 µM.

What about the GI50 [4] of the same compound?
Its GI50 is 0.195 µM.

And the TGI [4]?
The TGI was 0.859 µM.

What about the GI50 [5] of the same compound?
The GI50 was 0.0427 µM.

What about the TGI [5] of the same compound?
Its TGI is 0.334 µM.

And the GI50 [7]?
Its GI50 is 0.2 µM.

What about the TGI [7] of the same compound?
The TGI was 0.712 µM.

What about the GI50 [9] of the same compound?
Its GI50 is 0.113 µM.

And the TGI [9]?
The TGI was 0.273 µM.

And the GI50 [10]?
The GI50 was 0.0638 µM.

And the TGI [10]?
The TGI was 0.392 µM.

Reference: PubChem BioAssay (NCI)
